Assay results: PubChem BioAssay (NCI)
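Where inhibition never reached the appropriate level, the endpoint shown equals the highest concentration tested. Otherwise, values were interpolated linearly from a five-concentration, 48-hour dose response in 96-well plates. GI50 = concentration required for 50% inhibition of growth. TGI: concentration producing complete growth inhibition.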

Legend:
Assay in all cases: inhibition of tumour cell growth, NCI panel, 48 h
[1] = tested on: MDA-N
[2] = tested on: NCI-H226 lung
[3] = tested on: OVCAR-3 ovarian
[4] = tested on: HOP-92 NSCLC
[5] = tested on: SW-620 colon
[6] = tested on: OVCAR-4 ovarian
[7] = tested on: HCC-2998 colon
[8] = tested on: ACHN renal
[9] = tested on: IGROV1 ovarian
[10] = tested on: SK-OV-3 ovarian
[11] = tested on: SF-539 CNS
[12] = tested on: KM12 colon
[13] = tested on: CAKI-1 renal
[14] = tested on: RXF 393 renal

| Compound | TGI [1] | TGI [2] | TGI [3] | TGI [4] | TGI [5] | TGI [6] | TGI [7] | TGI [8] | TGI [9] | TGI [10] | TGI [11] | TGI [12] | TGI [13] | TGI [14] | GI50 [4] | GI50 [7] | GI50 [13] |
| --- | --- | --- | --- | --- | --- | --- | --- | --- | --- | --- | --- | --- | --- | --- | --- | --- | --- |
| CC(=O)OCc1cc(OC(C)=O)c2cc3c(OC(C)=O)cccc3c(OC(C)=O)c2c1 | 40.9 µM | 47.3 µM | 33.6 µM | 52.2 µM | 44.2 µM | 59.3 µM | 31.6 µM | 34.2 µM | 40.3 µM | 41.1 µM | – | – | – | – | – | – | – |
| Nc1ccc(N=Nc2ccc(-c3ccc(N=Nc4c(S(=O)(=O)O)cc5cc(S(=O)(=O)O)c(N=Nc6ccc([N+](=O)[O-])cc6)c(N)c5c4O)cc3)cc2)c2cc(S(=O)(=O)O)ccc12 | – | > 100 µM | > 100 µM | > 100 µM | > 100 µM | > 100 µM | > 100 µM | > 100 µM | > 100 µM | > 100 µM | > 100 µM | > 100 µM | > 100 µM | > 100 µM | – | – | – |
| Nc1c2ccccc2nc2nccnc12 | – | > 100 µM | > 100 µM | > 100 µM | > 100 µM | > 100 µM | > 100 µM | > 100 µM | > 100 µM | > 100 µM | > 100 µM | > 100 µM | > 100 µM | > 100 µM | – | – | – |
| CC12CCC3C(CCC4(O)C=CCCC34C=O)C1(O)CC(O)C2c1ccc(=O)oc1 (stereo unspecified) | – | 0.369 µM | 0.0939 µM | 0.267 µM | 0.222 µM | 0.102 µM | 0.252 µM | – | 0.35 µM | 0.248 µM | 0.0735 µM | 0.367 µM | 0.0894 µM | 0.0693 µM | – | – | – |
| Cc1ccc(OC2CC(n3cnc4c(=O)[nH]c(Br)nc43)OC2Oc2ccc(C)cc2)cc1 (stereo unspecified) | – | > 100 µM | 39.9 µM | 45.9 µM | > 100 µM | > 100 µM | 47.3 µM | 38 µM | 66.9 µM | > 100 µM | 50.1 µM | > 100 µM | 75.7 µM | 60.5 µM | – | – | – |
| CNc1cccc(-c2cc(=O)c3cc4c(cc3[nH]2)OCO4)c1 | – | 8.71 µM | – | > 100 µM | > 100 µM | > 100 µM | 1.38 µM | > 100 µM | > 100 µM | 1.07 µM | 0.573 µM | > 24.7 µM | > 100 µM | > 100 µM | – | – | – |
| O=C(O)[C@@]1(Cc2ccc(O)cc2)C[C@@H]2Cc3ccccc3N2N1 | > 100 µM | > 100 µM | > 100 µM | > 100 µM | > 100 µM | > 100 µM | – | > 100 µM | > 100 µM | > 100 µM | > 100 µM | > 100 µM | > 100 µM | – | – | – | – |
| CCNc1nc2c(=O)n(C)c(=O)n(C)c2s1 | – | > 100 µM | > 100 µM | > 100 µM | > 100 µM | > 100 µM | > 100 µM | > 100 µM | > 100 µM | > 100 µM | > 100 µM | > 100 µM | – | > 100 µM | – | – | – |
| CC1(C)OC[C@@H]([C@H](C=O)OCc2ccccc2)O1 | > 100 µM | > 100 µM | > 100 µM | > 100 µM | > 100 µM | > 100 µM | – | > 100 µM | > 100 µM | > 100 µM | – | > 100 µM | – | – | – | – | – |
| Cc1ccc(NCCO)cc1 | – | > 100 µM | > 100 µM | > 100 µM | > 100 µM | > 100 µM | – | > 100 µM | > 100 µM | > 100 µM | > 100 µM | > 100 µM | > 100 µM | – | – | – | – |
| COc1ccc(/C=C2\C(=O)Nc3ccccc32)cc1OC | – | > 100 µM | – | > 100 µM | > 100 µM | > 100 µM | – | > 100 µM | > 100 µM | > 100 µM | > 100 µM | > 100 µM | > 100 µM | > 100 µM | – | – | – |
| NCCSC1(O)C(=O)c2ccccc2-c2ccccc21 (stereo unspecified) | – | 2.99 µM | 0.38 µM | 2.62 µM | 3.16 µM | 0.556 µM | 3.56 µM | 2.23 µM | 3.73 µM | 2.95 µM | 2.67 µM | 3.33 µM | 3.05 µM | 3.01 µM | 1.3 µM | 2.01 µM | 1.63 µM |
| N#CC(NNC(=O)Cc1ccccc1)c1ccc(O)cc1 (stereo unspecified) | – | > 100 µM | – | > 100 µM | > 100 µM | > 100 µM | – | > 100 µM | > 100 µM | > 100 µM | > 100 µM | > 100 µM | > 100 µM | > 100 µM | – | – | – |
